Source: patent US7981875B2, “2″ oxo-voruscharin and derivatives thereof” (priority 2002, dated 2011)

Tests used:
[1] = system: Capan-2 (Pancreas); assay: MTT test, overall cell growth; format: cell-based, human; conditions: Capan-2 cell line
Method: (§1) In order to characterize the in vitro activities of the compounds according to the invention, MTT tests were carried out. The MTT test, which is a well-known test in the art, is an indirect technique that rapidly measures, i.e. within 5 days, the effect of a given product on the overall cell growth. This test measures the number of metabolically active living cells that are able to transform the MTT product (3-(4,5-dimethylthiazol-2-yl)-2,5 diphenyl tetrazolium bromide), having a yellowish color, to the blue product formazan dye by mitochondrial reduction. The amount of formazan obtained at the end of the experiment is measured with a spectrophotometer and is directly proportional to the number of living cells. Determination of the optical density enables a quantitative measurement of the effect of the investigated compounds as compared to the control condition (untreated cells) and to compare it to other reference compound. […]
(§2) After 72 hours of incubation at 37° C. with the compound (experimental conditions) or without the compound (control condition), the medium was replaced by 100 μl MTT at the concentration of 1 mg/ml dissolved in RPMI. […] The micro wells were shaken for 5 minutes and read on a spectrophotometer at the wavelengths of 570 nm corresponding to the maximum formazan absorbance wavelength, and of 630 nm, which is the background noise wavelength. […]

[2] = system: PC-3 (Prostate); assay: MTT test, overall cell growth; format: cell-based, human; conditions: PC-3 cell line
Method: as §1, §2

[3] = system: C32 (melanoma cancer); assay: Sub-cutaneous melanoma cancer model; format: in vivo, mice; conditions: for T/C index: three times a week
Method: (§3) Three types of results were obtained with in vivo anti-tumor pharmacology: 1) the cumulative toxicity of chemotherapeutic administrations through recording the weights of the tumor-bearing mice during treatment, 2) the actual anti-tumor effect exerted at tumor growth level. If the tumor models are grafted subcutaneously (s.c.), tumor size is measured three times a week by means of a caliper and expressed as an area (mm^2) by multiplying together the two largest perpendicular diameters, and 3) the gain in survival for the animals treated, which is evaluated by means of the T/C index. This index is the ratio between the median survival time of the group of treated animals (T) and that of the control group. The drug is considered to be active if the T/C value is above 130% (P<0.05), and toxic for a value lower than 70%.
The antitumoral activity of compound B was evaluated in different xenografted models: sub-cutanous model: MCF-7-TD5 (breast cancer) and C32 (melanoma cancer) and orthotopic model: A549 (lung cancer).
Experimental melanomas were set up in mice by painting their skins with a carcinogen. These experimental melanomas display certain morphological characteristics close to those of human melanomas but are less aggressive biologically. Compound B was assayed at DMT/4 (20 mg/kg), DMT/8 (10 mg/kg) and DMT/16 (5 mg/kg) three times a week. […] Indeed the T/C index values measured were respectively 95%, 107% and 81%.

[4] = system: PC-3 orthotopic xenograft; assay: Orthotopic refractory prostate cancer model; format: in vivo, nude mice; conditions: from 7th day post-graft
Method: as §3
In addition to the xenografted models of Example 6, the antitumoral activity of compound B was evaluated in orthotopic xenografted models PC3 (Prostate) and Capan2 (Pancreas).
Compound B was evaluated in vivo on highly invasive orthotopic PC-3 refractory prostate cancer model by measurement of T/C index, as described in Example 6 of the specification.

For `CC1CC2(NC(=O)CS2)C2(O)OC3CC4(CO)C(CCC5C4CCC4(C)C(C6=CC(=O)OC6)CCC54O)CC3OC2O1` (stereo not drawn) [Compound B], the IC50 [1] was 1 nM, the IC50 [2] was 5 to 10 nM and the T/C index ([3]; C32, 21×5 mg/kg) was 81%. The T/C index ([3]; C32, 25×20 mg/kg) was 95%, the T/C index ([3]; C32, 28×10 mg/kg) was 107% and the tumor area ([3]; C32-tumor bearing mice, most important effect at 10 mg/kg) was “decreased the tumor area”. For the same compound, the “weight of C32-tumor bearing mice (toxic side effects)” value ([3]; constant administration, 20, 10 and 5 mg/kg) was “did not loose any significant weight”, the T/C value ([4]; i.p. DMT/4 (20 mg/kg), 5ix6w) was 177% and the T/C value ([4]; per os DMT/2 (40 mg/kg), 5dx6w) was 132%.
